Numbered stars: 1 amine (or outer) side, 2 acyl side, 3 side chain; on linkers, the order of the positions; unused ones are H or OH. Bridge positions count the residues as written; N and C are the ends. Square brackets hold non-standard residues; d marks the D form. Peptide text beside a SMILES is read from it. * marks the point of attachment. hPhe(3-Cl-4-CF3) = N[C@@H](CCc1ccc(C(F)(F)F)c(Cl)c1)C(=O)O; hPhe(3-F,4-CF3) = N[C@@H](CCc1ccc(C(F)(F)F)c(F)c1)C(=O)O; hPhe(4-CF3) = N[C@@H](CCc1ccc(C(F)(F)F)cc1)C(=O)O; 3Oxa8azabicyclo(3.2.1)octane = C1CC2COCC1N2*; NMePhe(4-Cl) = CN[C@@H](Cc1ccc(Cl)cc1)C(=O)O; NMePhe(4-Me) = CN[C@@H](Cc1ccc(C)cc1)C(=O)O; X83 = Cc1ccc(CC[C@H](N[*:1])C(=O)[*:2])cc1; NMeGly(cPent) = CN[C@H](C(=O)O)C1CCCC1; X67 = O=C([C@@H]1CCC[C@H]1N[*:1])[*:2]; NMe3Pal = CN[C@@H](Cc1cccnc1)C(=O)O; NMeCha = CN[C@@H](CC1CCCCC1)C(=O)O; NMeChg = CN[C@H](C(=O)O)C1CCCCC1; NMeF = CN[C@@H](Cc1ccccc1)C(=O)O; NMeI = CC[C@H](C)[C@H](NC)C(=O)O; NMeD = CN[C@@H](CC(=O)O)C(=O)O; NMeL = CN[C@@H](CC(C)C)C(=O)O; NMeNva = CCC[C@H](NC)C(=O)O; NMeV = CN[C@H](C(=O)O)C(C)C; d(β3hA) = C[C@@H](N)CC(=O)O; NMeA = CN[C@@H](C)C(=O)O; Piperidide = C1CCN(*)CC1; Ac5c = NC1(C(=O)O)CCCC1; Aze = O=C(O)[C@@H]1CCN1; Sar = CNCC(=O)O
What follows are compounds tested against protein-protein interaction between Kras and SOS1 (biotin-tagged human Kras loaded with GDP, His-tagged human SOS1) (Homo sapiens (Human), UniProt P01116, G12D) (assay: Protein-protein interaction inhibition between Kras and SOS1 (KrasG12D-SOS PPI) using AlphaScreen). Settings: AlphaScreen; biotin-tagged human Kras loaded with GDP, His-tagged human SOS1; read-out: KRAS G12D-SOS PPI IC50.
Type: biochemical
`CC[C@H](C)[C@@H]1NC(=O)[C@H](C)N(C)C(=O)C[C@@H](C(=O)N2CCCCC2)N(C)C(=O)[C@H](C(C)C)N(C)C(=O)C2(CCCC2)NC(=O)[C@@H]2CCCN2C(=O)[C@H](CCc2ccc(C)cc2)NC(=O)CN(C)C(=O)[C@H](CC2CCCCC2)N(C)C(=O)[C@@H]2CCN2C(=O)[C@H](C)N(C)C1=O` [Compound 976] ([NMeA]I[NMeA][Aze][NMeCha][Sar][X83]P[Ac5c][NMeV][NMeD]-Piperidide; lactam N-11) was tested, and the IC50 was 180 nM.
Compound `CC[C@H](C)[C@@H]1NC(=O)[C@H](C)N(C)C(=O)C[C@@H](C)NC(=O)[C@H](CC(C)C)N(C)C(=O)[C@H](Cc2ccccc2)N(C)C(=O)[C@H](C)N(C)C(=O)[C@H](CCc2ccc(C(F)(F)F)cc2)NC(=O)CN(C)C(=O)[C@H](Cc2ccc(Cl)cc2)N(C)C(=O)CN(C)C(=O)CN(C)C1=O` [Compound 978] (cyclo(I[Sar][Sar][NMePhe(4-Cl)][Sar][hPhe(4-CF3)][NMeA][NMeF][NMeL][d(β3hA)][NMeA])) has an IC50 of 170 nM.
For `CCC[C@H]1C(=O)N(C)[C@H](C(=O)N2CCCCC2)CC(=O)N(C)[C@@H](CC(C)C)C(=O)N[C@@H]([C@@H](C)CC)C(=O)N(C)[C@@H](C)C(=O)N2CC[C@H]2C(=O)N(C)[C@@H](CC2CCCCC2)C(=O)N(C)CC(=O)N[C@@H](CCc2ccc(C(F)(F)F)c(Cl)c2)C(=O)N2CCC[C@H]2C(=O)NC2(CCCC2)C(=O)N1C` [Compound 995] ([NMeL]I[NMeA][Aze][NMeCha][Sar][hPhe(3-Cl-4-CF3)]P[Ac5c][NMeNva][NMeD]-Piperidide; lactam N-11), the IC50 was 5.7 nM.
Compound `CC[C@H](C)[C@@H]1NC(=O)[C@H](C(C)C)N(C)C(=O)[C@@H]2CCC[C@H]2NC(=O)[C@H](CC(C)C)N(C)C(=O)C2(CCCC2)NC(=O)[C@H](CC(C)C)N(C)C(=O)[C@H](CCc2ccc(C(F)(F)F)cc2)NC(=O)CN(C)C(=O)[C@H](Cc2ccc(Cl)cc2)N(C)C(=O)CN(C)C(=O)CN(C)C1=O` [Compound 996] (cyclo([Ac5c][NMeL][X67][NMeV]I[Sar][Sar][NMePhe(4-Cl)][Sar][hPhe(4-CF3)][NMeL])) has an IC50 of 90 nM.
In the case of `CC[C@H](C)[C@@H]1NC(=O)[C@H](CC(C)C)N(C)C(=O)C[C@@H](C(=O)N2C3CCC2COC3)N(C)C(=O)[C@H]([C@@H](C)CC)N(C)C(=O)C2(CCCC2)NC(=O)[C@@H]2CCCN2C(=O)[C@H](CCc2ccc(C(F)(F)F)c(Cl)c2)NC(=O)CN(C)C(=O)[C@H](C2CCCC2)N(C)C(=O)[C@@H]2CCN2C(=O)[C@H](C)N(C)C1=O` [Compound 1002] ([NMeL]I[NMeA][Aze][NMeGly(cPent)][Sar][hPhe(3-Cl-4-CF3)]P[Ac5c][NMeI][NMeD]-{3Oxa8azabicyclo(3.2.1)octane}; lactam N-11), the IC50 is reported as 2.1 nM.
Work on `CCC[C@H]1C(=O)NC2(CCCC2)C(=O)N(C)[C@@H](C2CCCCC2)C(=O)N(C)[C@H](C(=O)N2CCCCC2)CC(=O)N(C)[C@@H](CC(C)C)C(=O)N[C@@H]([C@@H](C)CC)C(=O)N(C)CC(=O)N(C)CC(=O)N(C)[C@@H](CC2CCCCC2)C(=O)N(C)CC(=O)N[C@@H](CCc2ccc(C(F)(F)F)c(Cl)c2)C(=O)N1C` [Compound 1005] ([NMeL]I[Sar][Sar][NMeCha][Sar][hPhe(3-Cl-4-CF3)][NMeNva][Ac5c][NMeChg][NMeD]-Piperidide; lactam N-11) yielded an IC50 of 3.5 nM.
`CC[C@H](C)[C@@H]1NC(=O)[C@H](CC(C)C)N(C)C(=O)C[C@@H](C(=O)N2CCCCC2)N(C)C(=O)[C@H](C2CCCC2)N(C)C(=O)C2(CCCC2)NC(=O)[C@@H]2CCCN2C(=O)[C@H](CCc2ccc(C(F)(F)F)c(F)c2)NC(=O)CN(C)C(=O)[C@H](Cc2ccc(C)cc2)N(C)C(=O)[C@@H]2CCN2C(=O)[C@H](C)N(C)C1=O` [Compound 1008] ([NMeL]I[NMeA][Aze][NMePhe(4-Me)][Sar][hPhe(3-F,4-CF3)]P[Ac5c][NMeGly(cPent)][NMeD]-Piperidide; lactam N-11) showed an IC50 of 0.76 nM.
Compound `CC[C@H](C)[C@@H]1NC(=O)[C@H](C)N(C)C(=O)C[C@@H](C(=O)N2CCCCC2)N(C)C(=O)[C@H](C2CCCCC2)N(C)C(=O)C2(CCCC2)NC(=O)[C@H](Cc2cccnc2)N(C)C(=O)[C@H](CCc2ccc(C(F)(F)F)c(Cl)c2)NC(=O)CN(C)C(=O)[C@H](CC2CCCCC2)N(C)C(=O)CN(C)C(=O)CN(C)C1=O` [Compound 1012] ([NMeA]I[Sar][Sar][NMeCha][Sar][hPhe(3-Cl-4-CF3)][NMe3Pal][Ac5c][NMeChg][NMeD]-Piperidide; lactam N-11) has an IC50 of 1.2 nM.
`CC[C@H](C)[C@@H]1NC(=O)[C@H](C(C)C)N(C)C(=O)C[C@@H](C)NC(=O)[C@H](CC(C)C)N(C)C(=O)C2(CCCC2)NC(=O)[C@H](CC(C)C)N(C)C(=O)[C@H](CCc2ccc(C(F)(F)F)c(Cl)c2)NC(=O)CN(C)C(=O)[C@H](Cc2ccc(Cl)cc2)N(C)C(=O)CN(C)C(=O)CN(C)C1=O` [Compound 1014] (cyclo([Ac5c][NMeL][d(β3hA)][NMeV]I[Sar][Sar][NMePhe(4-Cl)][Sar][hPhe(3-Cl-4-CF3)][NMeL])) was tested, and the IC50 was 13 nM.
`CC[C@H](C)[C@@H]1NC(=O)[C@H](CC(C)C)N(C)C(=O)C[C@@H](C)NC(=O)[C@H](C(C)C)N(C)C(=O)C2(CCCC2)NC(=O)[C@@H]2CCCN2C(=O)[C@H](CCc2ccc(C(F)(F)F)c(Cl)c2)NC(=O)CN(C)C(=O)[C@H](Cc2ccc(Cl)cc2)N(C)C(=O)[C@@H]2CCN2C(=O)[C@H](C)N(C)C1=O` [Compound 1018] (cyclo([Ac5c][NMeV][d(β3hA)][NMeL]I[NMeA][Aze][NMePhe(4-Cl)][Sar][hPhe(3-Cl-4-CF3)]P)) gave an IC50 of 11 nM.
